# Test results reported in patent publication US20180360801A1, “NEUROPROTECTIVE COMPOSITIONS AND THEIR USE” (priority 2017, published 2018).
# Assay: Blood glucose by glucometer after 4 weeks of treatment
# Type: in vivo
# Settings: rats, streptozotocin 55 mg/kg ip, n=12, p<0.05
# Protocol: In this study, we used streptozotocin (55 mg/kg) to induce hyperglycemia. We measured the levels of glucose using standardized glucometer after 4 weeks of treatment. Based on the literature, the current animal model represents severe hyperglycemia.
compound,measurement,value
"CN(N=O)C(=O)N[C@H]1C(O)O[C@H](CO)[C@@H](O)[C@@H]1O (mixture of isomers) [Streptozotocin, streptozotocin]",increase of levels of glucose as compared to the controls,445.5%
